Measured values reported in patent US20100297262A1, “[…] ACTIVE COMPOSITIONS COMPRISING OXIDATIVE STRESS MODULATORS (OSM), NEW CHEMICAL […], COMPOSITIONS AND USES” (COLBY PHARMACEUTICAL COMPANY, priority 2009, published 2010).
Like-named read-outs stand apart in the source and are kept apart here.

Key:
in vivo [1] = experiment: in vivo
Experimental: (§1) Pharmacokinetic (PK) studies of PMCol in mice administered 100 mg/kg PMCol p.o. or 5 mg/kg of PMCol i.v., using Liquid Chromatography-Mass Spectroscopic (LC-MS) analyses.

acetyl histone H4 = experiment: Western blot analysis of acetylated histones
PC-3 cells [2] = experiment: Cellular ROS as ratio DCF fluorescence:DNA fluorescence; details: 20 μM Vitamin E (non-toxic dose)
LNCaP cells [3] = experiment: Cellular ROS as ratio DCF fluorescence:DNA fluorescence, Example 12
Source text: Fluorescence of oxidized DCF dye is proportional to the total cellular ROS. When DCF fluorescence is normalized with the DNA fluorescence from the same well of the 96-well plate, the ratio DCF fluorescence:DNA fluorescence is proportional to the ROS generated per cell.

DU-145 = experiment: Growth of human prostate tumor cells in culture, PMCol; assay type: cell-based
Experimental: as §1
(§2) Mito-PMCol analogs and PMCol were compared for their relative cytostatic/anti-proliferative and cytotoxic and therapeutic activities in tumor cell systems as measured by clonogenic assays and direct live and dead cell counts are performed in a hemacytometer by trypan blue dye exclusion assay or by DNA fluorescence assays following routine published procedures established in our labs.

LAPC4 = experiment: as above; assay type: cell-based
Experimental: as §1, §2

LNCaP = experiment: as above; assay type: cell-based
Experimental: as §1, §2

[4] = system: spontaneous TRAMP mouse tumors; experiment: TRansgenic Adenocarcinoma of Mouse Prostate (TRAMP) model; assay type: in vivo
Experimental: The inhibitory effect of PMCol on prostate tumor growth is tested in the well characterized […] Adenocarcinoma of Mouse Prostate (TRAMP) model. […] Tumor development in PMCol treated animals was delayed by over 8 weeks as compared to the control animals.

in vivo [5] = details: mouse
Experimental: (§3) In order to test the efficacy of PMCol-C2 or Mito-PMCol-C10 in inhibiting growth of prostate tumors in vivo, the PMCol drug formulation was standardized, the route of its administration was determined and determination of the maximum tolerated dose (MTD), when administered orally or by i.v. injection.

[6] = rat, in vivo, po
Experimental: as §3

[7] = assay type: physicochemical; details: pH 2
LNCaP cells [8] = experiment: DNA (Hoechst 33258) fluorescence cell growth assay, Example 12; assay type: cell-based, human; details: for cell growth (DNA fluorescence) with logarithmic increase in SAHA concentration: SAHA 0-10 μM
HDAC = system: HDAC
Source text: The HDAC activity is expressed as a ratio of HDAC product fluorescence/DNA fluorescence in relative fluorescence unit (FU).

[9] = system: superoxide dismutase (SOD); experiment: SOD assay; assay type: cell-based, human; details: pretreated with 0.05 nM or 1 nM R1881 prior to 10 μM SAHA
all cell lines = experiment: DNA fluorescence cell growth assay, cell lines taken together; assay type: cell-based, human
[10] = patients, oral SAHA 400 mg qd, cited from earlier work
[11] = system: recurrent glioblastoma multiforme; details: compared to 4-4.4 months in earlier studies; cited from earlier work
[12] = system: advanced non-small-cell lung cancer (NSCLC); details: survival improvements not significant at P=0.05; cited from earlier work
[13] = system: latently HIV infected T-Cells; details: cited from earlier work
PC-3 cells [14] = experiment: DNA fluorescence cell growth assay; details: SAHA below 10 μM
HT-29 = experiment: DNA fluorescence cell growth assay; details: Vitamin E pretreated
MDA-MB231 = experiment: DNA fluorescence cell growth assay; details: Vitamin E pretreated
A549 = experiment: DNA fluorescence cell growth assay; details: any concentration of SAHA
NCI-H460 = experiment: DNA fluorescence cell growth assay; details: any concentration of SAHA
LNCaP cells [15] = experiment: LC-MS estimation of intracellular SAHA concentration; details: Vitamin E pretreated cells, first 24 hours
Experimental: Ten μL of each extract was used for LC-MS analysis, and the assay was repeated three times.
The solvent gradient and the flow rates were adjusted appropriately. A 5 minute post-run column wash at 10% solvent A, 90% solvent B was maintained at 0.2 ml/min. The column thermostat was maintained at 25° C. for the complete run.
The Mass detector for the mass detection was carried out with Agilent 1100 quadruple moment bench-top mass spectrometer with electrospray ionization in the positive ion mode at 3000 V. For both the single ion MS and scanning MS/MS mode, the desolvation temperature was 340° C. with the drying gas flow rate of 12 l/min at a nebular pressure of 40 psig. […] All data were collected, stored and analyzed using Agilent software for data collection, peak detection and integration.

siSSAT clone = experiment: ROS production in siSSAT clone; assay type: cell-based, human; details: R1881 treatment
[16] = system: LNCaP cells transfected with the control vector containing scrambled sequence; experiment: ROS production in vector control cells; assay type: cell-based, human; details: R1881 treatment
LNCaP cells [17] = details: cited from earlier work
[18] = Distribution and clearance of alkylTPP compounds (i.v., feeding tritiated compounds, drinking water); details: mice
[19] = system: Isolated liver mitochondria; details: Treatment: Ferrous iron/ascorbate; cited from earlier work
[20] = system: Isolated kidney mitochondria; details: Treatment: Superoxide; cited from earlier work
Jurkat cells = details: Treatment: H2O2; cited from earlier work
[21] = system: Bovine aortic endothelial cells; details: Treatment: H2O2 or hydroperoxyoctadecadienoic acid; cited from earlier work
[22] = system: Friedreich's ataxia patient primary skin fibroblasts; details: Treatment: Glutathione depletion; cited from earlier work
COS-7 cells = details: Treatment: H2O2; cited from earlier work
[23] = system: Rat primary cerebellar granule cells; details: Treatment: Ethanol; cited from earlier work
[24] = system: Human colon cancer cell lines (HCT116 and RKO); details: Treatment: 5-Fluorouracil; cited from earlier work
[25] = agent alone: 20 μM Vitamin E, 1 nM R1881 or 2 μM SAHA

CC1=C(C)C(=O)C(CCC(C)(C)O)=C(C)C1=O [PMQ, 2-(3-hydroxy-3-methylbutyl)-3,5,6-trimethyl-1,4-benzo-quinone]
time the metabolite remained in the serum (in vivo [1]; mice, oral PMCol, last time point of PK studies): at least 24 hours | appearance of the LC-MS peak in serum after oral administration of PMCol (in vivo [1]; mouse, in vivo, po): appears in serum within minutes

Cc1c(C)c2c(c(C)c1OC(=O)CCC(=O)O)CC[C@@](C)(CCC[C@H](C)CCC[C@H](C)CCCC(C)C)O2 [Vitamin E, αTocopherol succinate]
acetyl histone H4 level (acetyl histone H4; Vitamin E + R1881 + SAHA): almost completely restores | acetyl-histone H4 level (acetyl histone H4; [25]): little effect on the acetyl-histone H4 level | ROS levels (PC-3 cells [2]): markedly reduces the ROS levels | ROS levels (LNCaP cells [3]; 20 μM Vitamin E (non-toxic dose), LNCaP treated and untreated with R1881): markedly reduces the ROS levels

Cc1c(C)c2c(c(C)c1O)CCC(C)(C)O2 [PMCol, 2,2,5,7,8-pentamethyl-6-chromanol]
growth of androgen-independent DU-145 cells in culture (DU-145): inhibits the growth | growth of androgen-dependent LAPC4 cells in culture (LAPC4): inhibits the growth | growth of androgen-dependent LNCaP cells in culture (LNCaP): inhibits the growth | delay of tumor development as compared to the control animals ([4]; TRAMP model, PMCol treated animals): over 8 weeks | growth of spontaneous TRAMP mouse tumors ([4]; mouse, in vivo): inhibits the growth | oxidized metabolite (in vivo [1]; mouse, in vivo): ring-opened PMQ | bioavailability in blood serum (in vivo [1]; mouse, in vivo, iv): 0.5 mg/kg | half-life (in vivo [1]; mouse, in vivo, iv): 2 h | time after injection within which serum levels went down quickly (in vivo [1]; mouse, in vivo, iv, 5 mg/kg): ≤ 2 h | bioavailability in blood serum (in vivo [1]; mouse, in vivo, po): 4 mg/kg | half-life (in vivo [1]; mouse, in vivo, po): 0.5 h | in vivo metabolism (in vivo [1]; mouse, in vivo, po): oxidized in vivo to the hydroxylated-PMCol | time after administration within which serum levels went down quickly (in vivo [1]; mouse, in vivo, po, 100 mg/kg): ≤ 15 min | safety of administration (in vivo [5]): safely administered | MTD (in vivo [5]; iv): 7.5 mg/kg | MTD (in vivo [5]; po): 100 mg/kg | DLT [6]: 2 grams/kilogram/day | acid stability [7]: lability

O=C(CCCCCCC(=O)Nc1ccccc1)NO [SAHA, Suberoylanilide hydroxamic acid]
cell growth (DNA fluorescence) with logarithmic increase in SAHA concentration (LNCaP cells [8]; no R1881): inhibited almost linearly | cell growth (DNA fluorescence) (LNCaP cells [8]; normal androgen level (1 nM R1881), even at 10 μM SAHA): little effect on cell growth | cell growth (DNA fluorescence) with logarithmic increase in SAHA concentration (LNCaP cells [8]; pretreated with 0.05 nM R1881): inhibited almost linearly | cell growth (DNA fluorescence) (LNCaP cells [8]; pretreated with 2 nM R1881, all SAHA concentrations tested): negligible effect on cell growth | HDAC activity with increasing concentrations of SAHA (HDAC; R1881 untreated vector control cells, androgen-treated and untreated siSSAT cells): decreases in a similar fashion | HDAC activity with increasing concentrations of SAHA (HDAC; vector control cells pretreated with 1 nM R1881): increases after an initial decrease | SOD activity of LNCaP cells [9]: no significant difference in the SOD activity | nature of the increase in SAHA sensitivity (formalism of Chou and Talalay) (all cell lines; Vitamin E pretreatment followed by SAHA): synergistic | activity at clinically achievable serum level (~1.3 μM) (all cell lines; cell lines untreated with Vitamin E or another similar anti-oxidant): inactive | sensitivity to SAHA at a concentration much below the clinically achievable serum level (all cell lines; prostate, breast and colon cancer cells pretreated with anti-oxidants such as Vitamin E): highly sensitive | serum SAHA level [10]: ~349 ng/mL | serum SAHA level ([10]; clinically achievable): ~1.3 µM | median overall survival [11]: 5.7 months | response and survival [12]: improved response rates and increased median progression free survival and overall survival | effects against latently HIV infected T-Cells [13]: both in vitro and in vivo effects | resistance of PC-3 cells to SAHA (PC-3 cells [14]): intrinsically resistant | SAHA sensitivity compared to Vitamin E untreated cells (HT-29): higher in Vitamin E pretreated cells | SAHA sensitivity compared to Vitamin E untreated cells (MDA-MB231): higher in Vitamin E pretreated cells | change of SAHA sensitivity after Vitamin E pretreatment (A549): do not show any appreciable increase in SAHA sensitivity | change of SAHA sensitivity after Vitamin E pretreatment (NCI-H460): do not show any appreciable increase in SAHA sensitivity | acetyl-histone H4 level (acetyl histone H4; 1 nM R1881 pretreated cells + 2 μM SAHA): marked decrease | acetyl-histone H4 level (acetyl histone H4; [25]): small, but significant increase | intracellular SAHA level (LNCaP cells [15]): no significant decrease | cellular ROS (DCF/DNA fluorescence) with increase in SAHA concentration (LNCaP cells [3]; no R1881): ROS increases | cellular ROS (DCF/DNA fluorescence) with increase in SAHA concentration (LNCaP cells [3]; pretreated with 0.05 nM R1881): negligible effect on total cellular ROS levels | cellular ROS (DCF/DNA fluorescence) with increase in SAHA concentration (LNCaP cells [3]; pretreated with 2 nM R1881): negligible effect on total cellular ROS levels

C[C@]1(O)CC[C@H]2[C@@H]3CCC4=CC(=O)CCC4=C3C=C[C@@]21C [R1881]
effect on LNCaP cell growth (LNCaP cells [8]; 0.05 nM R1881): growth stimulatory | effect on LNCaP cell growth (LNCaP cells [8]; 1 nM or above): growth inhibitory effect | ROS production (siSSAT clone): no significant effect on ROS production | ROS production [16]: marked increase | cellular ROS (DCF dye oxidation) compared to 1-10 nM (LNCaP cells [17]; R1881 concentrations less than 0.1 nM, Ripple et al. 1997): significantly lower cellular ROS | cellular ROS (DCFH-DA dye oxidation) compared to 1 nM to 10 nM (LNCaP cells [17]; metribolone concentrations less than 1 nM, Ripple et al 1997): significantly lower cellular ROS | acetyl-histone H4 level (acetyl histone H4; [25]): little effect on the acetyl-histone H4 level

CC1(C)CC(OCCCCC[P+](c2ccccc2)(c2ccccc2)c2ccccc2)CC(C)(C)N1[O].[Br-] [Mito-Tempol]
redistribution once in the bloodstream [18]: rapidly redistribute into organs

Cc1c(C)c2c(c(C)c1O)CCC(C)(CC[P+](c1ccccc1)(c1ccccc1)c1ccccc1)O2 (stereo not drawn) [MitoVE-C2]
Outcome: lipid peroxidation, protein carbonyl formation and loss of membrane potential [19]: Decreases lipid peroxidation, | Outcome: activation of uncoupling proteins [20]: Blocks activation of | Outcome: apoptosis (Jurkat cells): Decreases apoptosis | Outcome: transferrin receptor expression and iron uptake [21]: fluorescence. Decreases | Outcome: cell death [22]: Decreases cell death | Outcome: growth factor receptor and kinase phosphorylation (COS-7 cells): Decreases growth factor | Outcome: dichlorofluorescein fluorescence and cell death [23]: Decreases | Outcome: apoptosis from 5-FU chemotherapy [24]: Decreases apoptosis from 5-
